Columns and labels:
Monochoria vaginalis = test: Test Example 1: herbicidal activity, application before weed generation in submerged conditions (symbol C); type: in vivo; settings: application herbicide amount 320 g/ha
Method in brief: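 Steps: alluvial soil flooded to 4 cm; weed seeds sown together; rice seedlings (2.5 leaf) transplanted; diluted emulsion applied to water surface the same day as sowing; plants grown at 25–30 °C in greenhouse; herbicidal effect rated on a 0–5 scale at 3 weeks.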

Setaria viridis = test: Test Example 4: herbicidal effect by soil treatment (symbol G); type: in vivo; settings: for Herbicidal effect grade, G: Setaria viridis / G (Setaria viridis) herbicidal effect grade: application herbicide amount 320 g/ha; for G: Setaria viridis, herbicidal effect grade: 320 g/ha
Method in brief: (§1)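 Seeds were sown in sterilized diluvial soil, covered with about 1.5 cm of soil, and the soil surface was sprayed with a water-diluted emulsion of the compound at a predetermined rate. Plants grew in a greenhouse at 25° C. to 30° C.; effects were scored visually 3 weeks after application.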

Chenopodium album [1] = test: Test Example 4: herbicidal effect by soil treatment (symbol O); type: in vivo; settings: for Herbicidal effect grade, O: Chenopodium album / O (Chenopodium album) herbicidal effect grade: application herbicide amount 320 g/ha; for O: Chenopodium album, herbicidal effect grade: 320 g/ha
Method in brief: as §1

Galium spurium = test: Test Example 4: herbicidal effect by soil treatment (symbol Q); type: in vivo; settings: for Herbicidal effect grade, Q: Galium spurium / Q (Galium spurium) herbicidal effect grade: application herbicide amount 320 g/ha; for Q: Galium spurium, herbicidal effect grade: 320 g/ha
Method in brief: as §1

Veronica persica [2] = test: Test Example 4: herbicidal effect by soil treatment (symbol R); type: in vivo; settings: for Herbicidal effect grade, R: Veronica persica / R (Veronica persica) herbicidal effect grade: application herbicide amount 320 g/ha; for R: Veronica persica, herbicidal effect grade: 320 g/ha
Method in brief: as §1

rapeseed = test: Test Example 4: effect on crop by soil treatment (symbol g); type: in vivo; settings: for Effect on crop grade, g: rapeseed / g (rapeseed) effect on crop grade: application herbicide amount 320 g/ha; for g: rapeseed, effect grade on crop: 320 g/ha
Method in brief: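 Crop seed is sown in spots together with several weed species in a box of sterilized diluvial soil. It is covered by about 1.5 cm of soil and kept in a greenhouse held between 25° C. and 30° C.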

Chenopodium album [3] = test: Test Example 5: herbicidal effect by foliage application, plastic box (symbol O); type: in vivo; settings: 320 g/ha, 3 weeks after application
Method in brief: (§2)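 Post-emergence spray; diluvial soil (sterilized), ~1.5 cm seed cover; greenhouse 25–30° C; 14-day-old plants; water-diluted emulsion at predetermined dose; visual score at 3 wk post-treatment.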

Veronica persica [4] = test: Test Example 5: herbicidal effect by foliage application, plastic box (symbol R); type: in vivo; settings: 320 g/ha, 3 weeks after application
Method in brief: as §2

Amaranthus retroflexus = test: Test Example 5: herbicidal effect by foliage application, plastic box (symbol N); type: in vivo; settings: 320 g/ha, 3 weeks after application
Method in brief: as §2

melting point	SMILES	Herbicidal effect grade, C: Monochoria vaginalis (Monochoria vaginalis)	O: Chenopodium album, herbicidal effect grade (Chenopodium album [3])	R: Veronica persica, herbicidal effect grade (Veronica persica [4])	N: Amaranthus retroflexus, herbicidal effect grade (Amaranthus retroflexus)	G (Setaria viridis) herbicidal effect grade (Setaria viridis)	g (rapeseed) effect on crop grade (rapeseed)	also measured
–	CON=C(CC1CC(O)=C(c2c(C)cc(-n3cc(Cl)cn3)cc2C)C1=O)C(C)C (stereo not drawn) [9-004]	0 (Herbicidal ratio of 5% or lower (almost no effect))	1 (Herbicidal ratio of 5% or higher and lower than 20%)	0 (Herbicidal ratio of 5% or lower (almost no effect))	–	–	–	Herbicidal effect grade, G: Setaria viridis (Setaria viridis): 5 (Herbicidal ratio of 90% or more (almost completely withered)); Herbicidal effect grade, O: Chenopodium album (Chenopodium album [1]): 0 (Herbicidal ratio of 5% or lower (almost no effect)); Herbicidal effect grade, Q: Galium spurium (Galium spurium): 0 (Herbicidal ratio of 5% or lower (almost no effect)); Herbicidal effect grade, R: Veronica persica (Veronica persica [2]): 0 (Herbicidal ratio of 5% or lower (almost no effect)); Effect on crop grade, g: rapeseed (rapeseed): 0 (Herbicidal ratio of 5% or lower (almost no effect))
–	CC#Cc1cc(C)c(C2=C(OC(=O)COc3ccccc3)CC(CC(=NOC)C(C)C)C2=O)c(C)c1 (stereo not drawn) [9-003]	1 (Herbicidal ratio of 5% or higher and lower than 20%)	3 (Herbicidal ratio of 40% or higher and lower than 70%)	4 (Herbicidal ratio of 70% or higher and lower than 90%)	0 (Herbicidal ratio of 5% or lower (almost no effect))	–	–	Herbicidal effect grade, G: Setaria viridis (Setaria viridis): 5 (Herbicidal ratio of 90% or more (almost completely withered)); Herbicidal effect grade, O: Chenopodium album (Chenopodium album [1]): 0 (Herbicidal ratio of 5% or lower (almost no effect)); Herbicidal effect grade, Q: Galium spurium (Galium spurium): 0 (Herbicidal ratio of 5% or lower (almost no effect)); Herbicidal effect grade, R: Veronica persica (Veronica persica [2]): 0 (Herbicidal ratio of 5% or lower (almost no effect)); Effect on crop grade, g: rapeseed (rapeseed): 5 (Herbicidal ratio of 90% or more (almost completely withered))
–	CC#CC(=O)OC1=C(c2c(C)cc(C)cc2C)C(=O)C(CC(C)=NOC)C1 (stereo not drawn) [1-095]	2 (Herbicidal ratio of 20% or higher and lower than 40%)	–	–	–	–	–	G: Setaria viridis, herbicidal effect grade (Setaria viridis): 5 (Herbicidal ratio of 90% or more (almost completely withered)); O: Chenopodium album, herbicidal effect grade (Chenopodium album [1]): 0 (Herbicidal ratio of 5% or lower (almost no effect)); Q: Galium spurium, herbicidal effect grade (Galium spurium): 0 (Herbicidal ratio of 5% or lower (almost no effect)); R: Veronica persica, herbicidal effect grade (Veronica persica [2]): 1 (Herbicidal ratio of 5% or higher and lower than 20%); g: rapeseed, effect grade on crop (rapeseed): 4 (Herbicidal ratio of 70% or higher and lower than 90%); N: Amaranthus retroflexus, herbicidal effect (criteria 0-5) (Amaranthus retroflexus): 3 (Herbicidal ratio of 40% or higher and lower than 70%); O: Chenopodium album, herbicidal effect (criteria 0-5) (Chenopodium album [3]): 0 (Herbicidal ratio of 5% or lower (almost no effect)); R: Veronica persica, herbicidal effect (criteria 0-5) (Veronica persica [4]): 3 (Herbicidal ratio of 40% or higher and lower than 70%)
–	CON=C(CC1CC(O)=C(c2c(C)cc(C)cc2C)C1=O)C(C)C (stereo not drawn) [1-048]	1 (Herbicidal ratio of 5% or higher and lower than 20%)	3 (Herbicidal ratio of 40% or higher and lower than 70%)	3 (Herbicidal ratio of 40% or higher and lower than 70%)	1 (Herbicidal ratio of 5% or higher and lower than 20%)	5 (Herbicidal ratio of 90% or more (almost completely withered))	0 (Herbicidal ratio of 5% or lower (almost no effect))	O (Chenopodium album) herbicidal effect grade (Chenopodium album [1]): 0 (Herbicidal ratio of 5% or lower (almost no effect)); Q (Galium spurium) herbicidal effect grade (Galium spurium): 0 (Herbicidal ratio of 5% or lower (almost no effect)); R (Veronica persica) herbicidal effect grade (Veronica persica [2]): 0 (Herbicidal ratio of 5% or lower (almost no effect))
172 to 174 °C	CC(CC1CC(O)=C(c2c(C)cc(C)cc2C)C1=O)=NOCC(F)(F)F (stereo not drawn) [1-028]	1 (Herbicidal ratio of 5% or higher and lower than 20%)	3 (Herbicidal ratio of 40% or higher and lower than 70%)	–	0 (Herbicidal ratio of 5% or lower (almost no effect))	5 (Herbicidal ratio of 90% or more (almost completely withered))	4 (Herbicidal ratio of 70% or higher and lower than 90%)	–
163 to 164 °C	CON=C(CC1CC(O)=C(c2c(C)cc(C)cc2C)C1=O)C(C)(C)C (stereo not drawn) [1-059]	2 (Herbicidal ratio of 20% or higher and lower than 40%)	0 (Herbicidal ratio of 5% or lower (almost no effect))	0 (Herbicidal ratio of 5% or lower (almost no effect))	0 (Herbicidal ratio of 5% or lower (almost no effect))	4 (Herbicidal ratio of 70% or higher and lower than 90%)	0 (Herbicidal ratio of 5% or lower (almost no effect))	–
96 to 108 °C	CON=CCC1CC(O)=C(c2c(C)cc(C)cc2C)C1=O (stereo not drawn) [1-050]	3 (Herbicidal ratio of 40% or higher and lower than 70%)	0 (Herbicidal ratio of 5% or lower (almost no effect))	0 (Herbicidal ratio of 5% or lower (almost no effect))	0 (Herbicidal ratio of 5% or lower (almost no effect))	4 (Herbicidal ratio of 70% or higher and lower than 90%)	0 (Herbicidal ratio of 5% or lower (almost no effect))	O (Chenopodium album) herbicidal effect grade (Chenopodium album [1]): 0 (Herbicidal ratio of 5% or lower (almost no effect))
–	COCC(=O)OC1=C(c2c(C)cc(C)cc2C)C(=O)C(CC(C)=NOC)C1 (stereo not drawn) [1-093]	2 (Herbicidal ratio of 20% or higher and lower than 40%)	–	–	–	–	–	G: Setaria viridis, herbicidal effect grade (Setaria viridis): 5 (Herbicidal ratio of 90% or more (almost completely withered)); O: Chenopodium album, herbicidal effect grade (Chenopodium album [1]): 0 (Herbicidal ratio of 5% or lower (almost no effect)); Q: Galium spurium, herbicidal effect grade (Galium spurium): 0 (Herbicidal ratio of 5% or lower (almost no effect)); R: Veronica persica, herbicidal effect grade (Veronica persica [2]): 0 (Herbicidal ratio of 5% or lower (almost no effect)); g: rapeseed, effect grade on crop (rapeseed): 4 (Herbicidal ratio of 70% or higher and lower than 90%); N: Amaranthus retroflexus, herbicidal effect (criteria 0-5) (Amaranthus retroflexus): 4 (Herbicidal ratio of 70% or higher and lower than 90%); O: Chenopodium album, herbicidal effect (criteria 0-5) (Chenopodium album [3]): 0 (Herbicidal ratio of 5% or lower (almost no effect)); R: Veronica persica, herbicidal effect (criteria 0-5) (Veronica persica [4]): 3 (Herbicidal ratio of 40% or higher and lower than 70%)
–	CON=C(CC1CC1)CC1CC(O)=C(c2c(C)cc(C)cc2C)C1=O (stereo not drawn) [1-070]	0 (Herbicidal ratio of 5% or lower (almost no effect))	1 (Herbicidal ratio of 5% or higher and lower than 20%)	2 (Herbicidal ratio of 20% or higher and lower than 40%)	0 (Herbicidal ratio of 5% or lower (almost no effect))	4 (Herbicidal ratio of 70% or higher and lower than 90%)	0 (Herbicidal ratio of 5% or lower (almost no effect))	O (Chenopodium album) herbicidal effect grade (Chenopodium album [1]): 0 (Herbicidal ratio of 5% or lower (almost no effect)); Q (Galium spurium) herbicidal effect grade (Galium spurium): 0 (Herbicidal ratio of 5% or lower (almost no effect)); R (Veronica persica) herbicidal effect grade (Veronica persica [2]): 0 (Herbicidal ratio of 5% or lower (almost no effect))
149 to 151 °C	CC(CC1CC(O)=C(c2c(C)cc(C)cc2C)C1=O)=NOc1ccccc1 (stereo not drawn) [1-057]	2 (Herbicidal ratio of 20% or higher and lower than 40%)	0 (Herbicidal ratio of 5% or lower (almost no effect))	0 (Herbicidal ratio of 5% or lower (almost no effect))	0 (Herbicidal ratio of 5% or lower (almost no effect))	4 (Herbicidal ratio of 70% or higher and lower than 90%)	4 (Herbicidal ratio of 70% or higher and lower than 90%)	R (Veronica persica) herbicidal effect grade (Veronica persica [2]): 0 (Herbicidal ratio of 5% or lower (almost no effect))
–	CC(CC1CC(O)=C(c2c(C)cc(Br)cc2C)C1=O)=NOCC(=O)N(C)C (mixture of isomers) [9-029]	–	0 (Herbicidal ratio of 5% or lower (almost no effect))	0 (Herbicidal ratio of 5% or lower (almost no effect))	0 (Herbicidal ratio of 5% or lower (almost no effect))	–	–	Herbicidal effect grade, G: Setaria viridis (Setaria viridis): 4 (Herbicidal ratio of 70% or higher and lower than 90%); Herbicidal effect grade, O: Chenopodium album (Chenopodium album [1]): 0 (Herbicidal ratio of 5% or lower (almost no effect)); Herbicidal effect grade, Q: Galium spurium (Galium spurium): 0 (Herbicidal ratio of 5% or lower (almost no effect)); Herbicidal effect grade, R: Veronica persica (Veronica persica [2]): 0 (Herbicidal ratio of 5% or lower (almost no effect)); Effect on crop grade, g: rapeseed (rapeseed): 0 (Herbicidal ratio of 5% or lower (almost no effect))
